Measurements reported in patent US20040147788A1, “Stilbene derivatives and their use as aryl hydrocarbon receptor antagonistic ligands” (priority 2002, published 2004).

Experiments:
[1] = molecular target: T1, Aryl Hydrocarbon Receptor (AhR) (Oryctolagus cuniculus, UniProt O02747); test: Ligand binding competition assay (Aryl Hydrocarbon Receptor), [3H]TCDD displacement; design: species or system female New Zealand rabbit (liver cytosol); conditions: for AhR RBA (relative binding affinity): resveratrol = 1
T1 construct: from tissue; host or cells: female New Zealand rabbit liver cytosol
T1 sequence (O02747 1-847): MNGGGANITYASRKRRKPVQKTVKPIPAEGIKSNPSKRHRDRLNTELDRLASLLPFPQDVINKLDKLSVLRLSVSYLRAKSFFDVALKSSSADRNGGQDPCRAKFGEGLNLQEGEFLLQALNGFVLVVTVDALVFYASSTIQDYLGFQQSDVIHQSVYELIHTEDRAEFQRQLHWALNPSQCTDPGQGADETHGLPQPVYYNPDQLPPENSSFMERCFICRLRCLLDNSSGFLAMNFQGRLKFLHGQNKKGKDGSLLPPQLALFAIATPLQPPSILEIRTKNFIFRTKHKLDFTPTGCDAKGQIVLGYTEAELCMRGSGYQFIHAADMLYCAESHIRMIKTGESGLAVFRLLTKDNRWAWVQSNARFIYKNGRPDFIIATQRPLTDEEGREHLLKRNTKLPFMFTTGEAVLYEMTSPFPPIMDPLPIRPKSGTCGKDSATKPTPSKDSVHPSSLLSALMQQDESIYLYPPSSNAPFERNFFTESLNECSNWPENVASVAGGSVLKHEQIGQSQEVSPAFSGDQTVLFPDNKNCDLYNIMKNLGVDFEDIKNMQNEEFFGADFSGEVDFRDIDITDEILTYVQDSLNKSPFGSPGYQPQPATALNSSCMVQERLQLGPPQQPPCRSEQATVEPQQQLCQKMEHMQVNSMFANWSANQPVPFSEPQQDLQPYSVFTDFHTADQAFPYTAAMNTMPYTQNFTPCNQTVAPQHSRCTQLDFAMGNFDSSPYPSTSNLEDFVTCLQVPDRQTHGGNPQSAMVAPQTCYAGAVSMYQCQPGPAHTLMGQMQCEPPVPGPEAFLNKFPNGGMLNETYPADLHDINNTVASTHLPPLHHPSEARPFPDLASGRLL
Description: Ligand binding competition assay (Aryl Hydrocarbon Receptor)
Experiments were conducted exactly as previously described by Savouret et al., (3). Briefly, binding competition was performed using female New Zealand rabbit liver cytosol as the receptor source. The cytosol was prepared at 4° C. in Hepes 20 mM pH 7.6, EDTA 1.5 mM, glycerol 10%, β-mercapto-ethanol 10 mM, with Complete protease cocktail (Roche, Meylan, France) by homogenisation in a Ultra-Turax homogenizer (Bioblock Scientific, Illkirch, France) followed with 20 strokes in a Dounce Homogenizer with the tight pestle. The homogenate was centrifuged 30 min at 20,000 g. The supernatant was centrifuged at 105,000 g for 65 min. The cytosol was aliquoted, snap-frozen in liquid nitrogen and kept at −80° C. Cytosol aliquotes (4.5 ml) were thawed on ice, diluted ten-fold in Hepes 20 mM pH 7.6, 5 mM CaCl2, containing Complete protease cocktail and 10 mM mercapto-ethanol, and recentrifuged 30 min. at 105,000 g. The cleared cytosol dilution was adjusted to 0.85 mg proteins/ml. 930 μl of diluted cytosol were preincubated with the desired amounts of unlabeled competitors in ethanol solutions for 1 hour at 4° C. Subsequently, 2,3,7,8-tetrachloro (1,6-3 H) dibenzo-p-dioxin (28 Ci/mmole) was added at 0.2 nM and incubation continued for 3 hours at 4° C. Non-displaceable binding was assessed by incubating the aliquotes with 70 μl of a 2% activated charcoal suspension in Hepes 20 mM pH 7.6 for 90 minutes at 4° C., followed by centrifugation at 15,000 g for 10 minutes. 500 μl of the supernatants were counted in 5 ml of Ultima Gold cocktail (Packard, Meridien, Conn.) in a Beckman liquid scintillation Counter (45% counting efficiency). Binding competition assays were repeated at least twice for each competitor and each point was performed in triplicate.

AhR = molecular target: T2, AhR (Homo sapiens, UniProt P35869); test: AhR-mediated transactivation, DRE-TK-CAT stable cell line 47DRE treated with TCDD; format: cell-based; design: endogenous in cells; conditions: DRE-TKCAT reporter; for AhR TA (transcriptional activity): cis-stilbenes, 10^−9 M TCDD challenged by 10−7 M compound; for AhR T.A. (transcriptional activity): trans-stilbenes, 10^−9 M TCDD challenged by 10^−7 M compound
T2 sequence (P35869 11-848): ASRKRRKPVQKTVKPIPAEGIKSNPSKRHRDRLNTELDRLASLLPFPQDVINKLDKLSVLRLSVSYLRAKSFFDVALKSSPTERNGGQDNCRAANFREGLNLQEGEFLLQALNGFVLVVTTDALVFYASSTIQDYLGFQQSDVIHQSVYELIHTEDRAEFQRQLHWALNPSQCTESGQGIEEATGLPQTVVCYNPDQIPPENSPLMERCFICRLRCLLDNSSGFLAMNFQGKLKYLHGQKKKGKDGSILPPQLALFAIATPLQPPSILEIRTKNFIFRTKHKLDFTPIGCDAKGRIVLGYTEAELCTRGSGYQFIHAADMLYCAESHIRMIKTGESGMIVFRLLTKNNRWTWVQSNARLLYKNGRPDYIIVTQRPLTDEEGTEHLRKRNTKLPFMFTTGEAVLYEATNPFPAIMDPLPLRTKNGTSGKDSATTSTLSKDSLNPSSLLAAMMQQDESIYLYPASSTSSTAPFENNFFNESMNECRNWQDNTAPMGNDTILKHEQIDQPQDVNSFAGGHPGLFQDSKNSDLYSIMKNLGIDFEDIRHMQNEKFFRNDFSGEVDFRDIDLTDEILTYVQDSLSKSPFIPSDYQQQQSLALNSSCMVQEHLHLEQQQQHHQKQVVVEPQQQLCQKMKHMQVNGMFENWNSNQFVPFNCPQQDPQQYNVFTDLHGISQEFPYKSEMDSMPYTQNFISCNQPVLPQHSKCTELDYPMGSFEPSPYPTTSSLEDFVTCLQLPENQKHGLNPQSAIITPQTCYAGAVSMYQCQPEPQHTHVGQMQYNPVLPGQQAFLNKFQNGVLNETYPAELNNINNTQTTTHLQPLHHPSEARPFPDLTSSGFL
Description: Cis and Trans isomers were then tested for transcriptional modulatory activity in a DRE-TK-CAT containing stable cell line treated with TCDD.
mp° C.: melting point. Ago: agonist. N.M.: not measurable. RBA: relative binding affinity of the compound for the given receptor (AhR or ER).
The stable cell line 47DRE bearing the TCDD-responsive CAT construct was previously described (3). It was routinely grown in DMEM medium supplemented with 10% fetal calf serum (FCS), 4.5 g/L glucose, and 0.6 units/ml (10^−6 M) insulin. Unless stated otherwise, cells were established 24 hours before any experiment in a modified medium (stripped condition) containing 5% Dextran-charcoal-treated newbom calf serum instead of 10% FCS. All other components remained unchanged. […] All chemicals applied to the cells were diluted in ethanol, control cells received ethanol alone. CAT expression was assayed on whole cell extracts (100 μg protein) with a CAT-ELISA assay (Roche, Meylan, France) according to supplier's specifications. Experiments were done in triplicate.

SMILES	AhR RBA (relative binding affinity) ([1]; cis-stilbenes)	AhR TA (transcriptional activity) (AhR)	AhR RBA (relative binding affinity) ([1]; trans-stilbenes)	melting point	AhR T.A. (transcriptional activity) (AhR)	relative binding affinity (RBA) for AhR [1]
FC(F)(F)c1ccc(/C=C\c2cc(C(F)(F)F)cc(C(F)(F)F)c2)cc1 [Compound 5e, (Z)-1-(4-trifluoromethylphenyl)-2-(3,5-ditrifluoromethylphenyl)-ethene]	2.7	Ant	–	–	–	–
CCCCOc1ccc(/C=C/c2cc(OC)cc(OC)c2)cc1 [Compound 4h, (E)-1-(4-butoxyphenyl)-2-(3,5-dimethoxyphenyl)-ethene]	–	–	8.1	54 to 56 °C	Ant	–
COc1ccc(/C=C\c2cc(F)cc(F)c2)cc1 [Compound 5c, (Z)-1-(4-methoxyphenyl)-2-(3,5-difluorophenyl)-ethene]	7.2	Ant	–	–	–	–
CCCCOc1ccc(/C=C\c2cc(OC)cc(OC)c2)cc1 [Compound 5h, (Z)-1-(4-butoxyphenyl)-2-(3,5-dimethoxyphenyl)-ethene]	3.7	Ant	–	–	–	–
Fc1ccc(/C=C\c2cc(F)cc(F)c2)cc1 [Compound 5d, (Z)-1-(4-fluorophenyl)-2-(3,5-difluorophenyl)-ethene]	2.6	Ant	–	–	–	–
CCOc1ccc(/C=C\c2cc(OC)cc(OC)c2)cc1 [Compound 5g, (Z)-1-(4-ethoxyphenyl)-2-(3,5-dimethoxyphenyl)-ethene]	2.5	Ant	–	–	–	–
Clc1ccc(/C=C\c2cc(Cl)cc(Cl)c2)cc1 [Compound 5b, (Z)-1-(4-chlorophenyl)-2-(3,5-dichlorophenyl)-ethene]	12.4	Ant	–	–	–	–
COc1cc(/C=C\c2ccc(F)cc2)cc(OC)c1 [Compound 5f, (Z)-1-(4-fluorophenyl)-2-(3,5-dimethoxyphenyl)-ethene]	1.7	Ant	–	–	–	–
COc1cc(/C=C/c2ccc(F)cc2)cc(OC)c1 [Compound 4f, (E)-1-(4-fluorophenyl)-2-(3,5-dimethoxyphenyl)-ethene]	–	–	32.1	–	Ant	–
COc1ccc(/C=C\c2cc(Cl)cc(Cl)c2)cc1 [Compound 5j, (Z)-1-(4-methoxyphenyl)-2-(3,5-dichlorophenyl)-ethene]	13.0	Ant	–	–	–	–
FC(F)(F)c1ccc(/C=C\c2cc(Cl)cc(Cl)c2)cc1 [Compound 5i, (Z)-1-(4-trifluoromethylphenyl)-2-(3,5-dichlorophenyl)-ethene]	10.9	Ant	–	–	–	–
Clc1ccc(/C=C/c2cc(Cl)cc(Cl)c2)cc1 [Compound 4b, (E)-1-(4-chlorophenyl)-2-(3,5-dichlorophenyl)-ethene]	–	–	130.0	–	Ant	130.0
COc1ccc(/C=C\c2cc(OC)cc(OC)c2)cc1 [Compound 5a, (Z)-1-(4-methoxyphenyl)-2-(3,5-dimethoxyphenyl)-ethene]	2.1	Ant	–	–	–	–
COc1ccc(/C=C/c2cc(OC)cc(OC)c2)cc1 [Compound 4a, (E)-1-(4-methoxyphenyl)-2-(3,5-dimethoxyphenyl)-ethene]	–	–	21.0	–	Ant	–
